In US20110190137A1, “METHOD TO INHIBIT ETHYLENE RESPONSES IN PLANTS” (priority 2003, published 2011):

How the values were obtained:
[1] = tested on: ethylene-induced epinasty in Patio variety tomato plants; test: Tomato epinasty test, spray application treatment; assay type: in vivo; conditions: spray 10 ppm in 10% acetone/90% water, 0.05% Silwett L-77; 10 ppm ethylene; scale 0 to 10 (10 = complete protection)
Method: (§1) Objective: The test procedure is designed to determine the ability of an experimental compound to block the epinastic growth response induced by ethylene in tomato plants when the experimental compound is administered either as a volatile gas or as a component of a spray solution.
(§2) Treatment chambers are of an appropriate size for the test plants and are airtight. Each is fitted with a reusable septum to be used for injection of ethylene. Test plants are Patio variety tomato seedlings planted two plants per three inch square plastic pot.
Spray application treatment entails using a DeVilbiss atomizer to completely cover all foliage and stems of two pots of Patio var. tomato plants with the appropriate amount of experimental compound dissolved in 10% acetone/90% water with 0.05% Silwett L-77 surfactant. Plants are air-dried in a drying hood for four hours then transferred to a 4.8 L polystyrene chamber which is sealed.
Ethylene gas equal to 10 ppm v/v final concentration is injected into the sealed chamber. Sixteen hours later the chambers are opened in an exhaust hood, allowed to air and the plants scored visually for the degree of protection against ethylene-induced epinasty conferred by the experimental compound when compared to ethylene treated and untreated controls on a scale of 0 to 10. A rating of 10 means complete protection. A rating of 0 means no protection from the effects of ethylene.

[2] = tested on: ethylene-induced epinasty in Patio variety tomato plants; test: Tomato epinasty test, volatile gas treatment; assay type: in vivo; conditions: for Gas @ 10 ppm: visual rating of protection against ethylene-induced epinasty: gas 10 ppm v/v, 10 ppm ethylene, scale 0 to 10 (10 = complete protection); for Gas @ 1000 ppm: visual rating of protection against ethylene-induced epinasty: gas 1000 ppm v/v, 10 ppm ethylene after 4 h, scored 16 h later, scale 0 (no protection) to 10 (complete protection)
Method: as §1, §2
Volatile gas treatment entails placing two pots of Patio var. tomatoes into a polystyrene 4.8 L volume treatment chamber along with one-half (upper or lower section) of a 50×9 mm plastic Petri dish containing a Gelman filter pad. The appropriate amount of experimental compound, dissolved in 1.0 ml acetone, is pipetted onto the filter pad and the chamber immediately sealed. Four hours later ethylene gas equal to 10 ppm v/v final concentration is injected into the sealed chamber. Sixteen hours later the chambers are opened in an exhaust hood, allowed to air and the plants scored visually for the degree of protection against ethylene-induced epinasty conferred by the experimental compound when compared to ethylene treated and untreated controls on a scale of 0 to 10. A rating of 10 means complete protection. A rating of 0 means no protection from the effects of ethylene. Gas treatment concentrations are volume/volume.

SMILES	Spray @10 ppm: visual rating of protection against ethylene-induced epinasty [1]	Gas @ 10 ppm: visual rating of protection against ethylene-induced epinasty [2]	Gas @ 500 ppm: rating of protection against epinasty ([2]; gas 500 ppm, scale 0 to 10)	Gas @ 1000 ppm: visual rating of protection against ethylene-induced epinasty [2]
CCCCCCCCC1=CC1C(=O)O (stereo not drawn) [Compound 78, 1-Octyl-3-carboxy-cyclopropene]	0	0	10	5
CCCC[Si](C)(C)C1=C(C)C1 [Compound 80, 1-(Butyldimethylsilyl)-2-methylcyclopropene]	0	0	–	7
CC[Si](CC)(CC)C1=C(C)C1 [Compound 81, 1-Triethylsilyl-2-methylcyclopropene]	0	0	–	10
CC(C)(C)[Si](C)(C)OCCCCCCCC1=CC1 [Compound 82, 1-(7-T-butyldimethylsilyloxyheptyl)-cyclopropene]	0	3	–	10
CCC1=C(COS(C)(=O)=O)C1 [Compound 83, 1-(Methanesulfonyloxymethyl)-2-ethylcyclopropene]	2	4	–	10
CCOP(=S)(OCC)SCC1=C(CC)C1 [Compound 84, 1-(Diethoxy-thiophosphorylthiomethyl)-2-ethylcyclopropene]	0	0	–	10
CS(=O)(=O)OCCCCC1=CC1 [Compound 85, 1-(4-Methanesulfonyloxybutyl)-cyclopropene]	0	0	–	10
CCCCCCCCC1=C(B(O)O)C1 [Compound 86, 2-Octyl-1-(boronic acid)-cyclopropene]	0	10	–	–
